Data as given in the SangsterLogP compilation.

Assay: method code SF-AS, from DOI: 10.1016/0223-5234(92)90004-k

Row | logP | Structure (SMILES)
1 | 0.72 | COc1cc(NS(C)(=O)=O)ccc1-c1cn2cccnc2n1
2 | 0.7 | COc1cc(C(N)=O)ccc1-c1cn2cccnc2n1
3 | 1.94 | COc1ccc(-c2cn3cccnc3n2)c(OC)c1
4 | 1.62 | COc1ccc(-c2nc3ncc(N)cc3[nH]2)c(OC)c1
5 | 1.68 | COc1ccc(-c2cn3cc(N)cnc3n2)c(OC)c1
6 | 0.33 | COc1cc(S(C)=O)ccc1-c1nc2ncc(N)cc2[nH]1 (stereo not given)
7 | 2.44 | COc1cc(SC)ccc1-c1cn2cccnc2n1
8 | 1.05 | COc1cc(OS(C)(=O)=O)ccc1-c1cn2cccnc2n1
9 | 1.18 | COc1cc(C(N)=O)ccc1-c1nc2cnccc2[nH]1

Row | Structure (SMILES) | logP
10 | COc1ccc(-c2nc3ncccc3[nH]2)c(OC)c1 | 2.56
